Test results from patent US9844531B2, “Methods of maintaining and improving muscle function” (ABBOTT LABORATORIES, priority 2013, dated 2017).
“And” between values parts separate entries of the source, which are not always exact repeats. Equal entries are not always repeated. “Also recorded” adds a separate entry of the source.

Key:
[1] = tested on: VEGF; assay: VEGF level after 8 weeks of dietary EGCg supplementation in aged SD rats (multi-analyte profiling); assay type: in vivo, Sprague Dawley rat; conditions: for VEGF: gastrocnemius muscle lysate, 22 mos at sacrifice
Protocol: (§1) Example 3 illustrates the effect of 8 weeks of dietary EGCg supplementation on skeletal muscle biomarkers in the aged Sprague Dawley (SD) rat model of sarcopenia. More particularly, gastrocnemius muscle lysates of aged SD rats administered EGCg were analyzed for changes in various skeletal muscle biomarkers.
(§2) In Vivo Study 1—Aged (25 Months Old) Vs. Adult (13 Months Old)-Male SD rats (12 months old; adult rats; Dataset A) and male SD rats (24 months old; aged rats; Dataset B) were purchased from Harlan (Indianapolis, Ind.). The rats were single-housed in cages with hardwood chip bedding and were exposed to a 12-hour light cycle. At receipt, rats had ad libitum access to natural chow (Teklad Global 18% Protein Rodent Diet, catalog #2018S, Harlan) and water during adaptation to the animal facility. Adult rats (Dataset A) were 13 months old at the time of sacrifice, and aged rats (Dataset B) were 25 months old at the time of sacrifice. The right gastrocnemius muscle of the rats were collected and flash-frozen on liquid nitrogen.
(§3) In Vivo Study 2—EGCg Supplementation-Male SD rats (19 months old) were purchased from Harlan (Indianapolis, Ind.). The rats were single-housed in cages with hardwood chip bedding and were exposed to a 12-hour light cycle. At receipt, rats had ad libitum access to purified diet AIN-93M (Research Diets, #D10012M) and water during adaptation to the animal facility. Subsequently, the rats were given ad libitum access to AIN-93M diet supplemented with EGCg-rich (>95%) Teavigo® at 200 mg/kg body weight (Dataset C) for 8 weeks.
as §3, with “Vivo Study 3—EGCg Supplementation-Male SD” for “Vivo Study 2—EGCg Supplementation-Male SD”, “access to either AIN-93M diet (Dataset D) or AIN-93M diet” for “access to AIN-93M diet”, “Teavigo® at 50 mg/kg body” for “Teavigo® at 200 mg/kg body”, “weight (Dataset E) for 8” for “weight (Dataset C) for 8”
(§4) Preparation of Muscle Lysates-Whole gastrocnemius muscles were collected from euthanized rats (Dataset A, Dataset B, Dataset C, Dataset D, and Dataset E) and flash-frozen on liquid nitrogen and stored in aluminum foil at −80° C. Subsequently, the gastrocnemius muscle samples were partially thawed on dry ice. Approximately 200 mg of tissue was obtained from each muscle sample by mechanical biopsy punch. The specimens were quickly pulverized on liquid nitrogen and transferred to a 15 mL conical tube and weighed. A mild, detergent-free lysis buffer (9×) was added to the dried specimen in the conical tube. 9× Lysis buffer (50 mM Tris.HCl, 2 mM EDTA, pH 7.4/NaOH) was supplemented with a mammalian protease inhibitor cocktail (Sigma-Aldrich, Inc.) at a 1:200 dilution and stored on ice. The specimens were then vortexed for 10 seconds ahead of homogenization at 25×1000 rpm for approximately 10 seconds. The lysate was vortexed again for 10 seconds and transferred to a 1.5 mL tube. Lysates were centrifuged/clarified for 5 minutes at 11000 rpm at 4° C. in a standard table-top Eppendorf centrifuge. Supernatant (1 mL) was aliquotted to a 2 mL cryotube and stored at −80° C. Lysates were analyzed by Myriad Rules Based Medicine (Austin, Tex.) on the RodentMAP® v.2.0 Antigens and Rat METABOLIC® multi-analyte profiling platforms.

[2] = tested on: interleukin-1A (IL1A); assay: IL1A level after 8 weeks of dietary EGCg supplementation in aged SD rats (multi-analyte profiling); assay type: in vivo, Sprague Dawley rat; conditions: for IL1A: gastrocnemius muscle lysate, 22 mos at sacrifice
Protocol: as §1, §2, §3
as §3, with “Vivo Study 3—EGCg Supplementation-Male SD” for “Vivo Study 2—EGCg Supplementation-Male SD”, “access to either AIN-93M diet (Dataset D) or AIN-93M diet” for “access to AIN-93M diet”, “Teavigo® at 50 mg/kg body” for “Teavigo® at 200 mg/kg body”, “weight (Dataset E) for 8” for “weight (Dataset C) for 8”
as §4

[3] = tested on: gastrocnemius muscle; assay: Gastrocnemius muscle wet weight in the aged SD rat model of sarcopenia; assay type: in vivo, Sprague Dawley rat; conditions: 8 weeks
Protocol: (§5) Example 4 illustrates the effect of 8 weeks of dietary EGCg supplementation in the aged Sprague Dawley (SD) rat model of sarcopenia. More particularly, the level of myostatin in gastrocnemius muscle lysates of young SD rats (“young”), aged SD rats (“old”), and aged SD rats administered EGCg (“old-EGCg”) was analyzed and compared.
In Vivo Study—EGCg Supplementation-Male SD rats (20 months old) were purchased from Harlan (Indianapolis, Ind.). The rats were single-housed in cages with hardwood chip bedding and were exposed to a 12-hour light cycle. For 1 week, rats had ad libitum access to purified diet AIN-93M (Research Diets, #D10012M) and water during adaptation to the animal facility. The AIN-93M diet typically comprises about 13% (by weight) protein, about 73% (by weight) carbohydrate, and about 4% (by weight) fat, and has an energy content of about 3.77 kcal/gram. Subsequently, the rats were given ad libitum access to AIN-93M diet supplemented with EGCg (>95%) (Teavigo, DSM) at 200 mg/kg body weight (n=12) (“old-EGCg” or “EGCg supplemented”) or control AIN-93 diet (n=11) (“old” or “Control”) for 8 weeks.
as §4, with “rats, weighed,” for “rats (Dataset A, Dataset B, Dataset C, Dataset D, and Dataset E)”, “Lysates were centrifuged/clarified for 5 minutes at 11000 rpm at 4° C. in a standard table-top Eppendorf centrifuge. Supernatant (1 mL) was aliquotted to a 2 mL cryotube and stored at −80° C. Lysates were analyzed by Myriad Rules Based Medicine (Austin, Tex.) on the RodentMAP® v.2.0 Antigens and Rat METABOLIC® multi-analyte profiling platforms.” left out

[4] = tested on: myostatin; assay: Western blot of myostatin in gastrocnemius muscle lysates of aged SD rats; assay type: in vivo, Sprague Dawley rat; conditions: EGCg 200 mg/kg body weight, 8 weeks
Protocol: as §5
In Vivo Study—EGCg Supplementation-Male SD rats (20 months old) were purchased from Harlan (Indianapolis, Ind.). The rats were single-housed in cages with hardwood chip bedding and were exposed to a 12-hour light cycle. For 1 week, rats had ad libitum access to purified diet AIN-93M (Research Diets, #D10012M) and water during adaptation to the animal facility. The AIN-93M diet typically comprises about 13% (by weight) protein, about 73% (by weight) carbohydrate, and about 4% (by weight) fat, and has an energy content of about 3.77 kcal/gram. Subsequently, the rats were given ad libitum access to AIN-93M diet supplemented with EGCg (>95%) (Teavigo, DSM) at 200 mg/kg body weight (n=12) (“old-EGCg” or “EGCg supplemented”) or control AIN-93 diet (n=11) (“old” or “Control”) for 8 weeks. […]
Western blot analysis was carried out using anti-myostatin antibodies (Anti-GDF8/Myostatin antibody-Cat.# ab996-Abcam). […] Blots were scanned by densitometry to quantitate differences. […]

[5] = tested on: myostatin in C2C12 myotubes; assay: Western blot of myostatin expression in serum starved C2C12 myotubes; assay type: cell-based; conditions: for Myostatin (% control): 24 hrs, NC = 100, No Serum = 315
Protocol: Example 5 illustrates the effect of EGCg on expression of myostatin in serum starved C2C12 myotubes. C2C12 myoblasts were passaged in DMEM supplemented with 10% fetal calf serum (FCS), 1% glutamine, and 1% penicillin-streptomycin under an atmosphere of 10% CO2 in air at 37° C. When the myoblasts reached about 80% confluency, they were differentiated into myotubes in DMEM containing 2% horse serum (HS), with medium changes every 2 days. Differentiation was complete in 5-7 days, and the myotubes remained viable for a further 4-5 days.
To induce protein degradation in the myotubes, HS-supplemented DMEM media was replaced with DMEM medium without any serum for 24 hrs, while the negative control group of myotubes (“NC”) was not deprived of serum (i.e., the NC group was re-fed with DMEM media containing 2% HS). Myotubes were treated with EGCg (10 μM and 25 μM) over this serum starvation period. Western blot analysis was carried out on cell lysates as described in Example 4.
FIG. 4 and Table 5 illustrate the expression of myostatin in the non-serum starved control cells (“NC”), serum starved control cells (“No Serum”), and EGCg treated serum starved cells (“No Serum+10 μM EGCg” and “No Serum+25 μM EGCg”). The densitometric analysis was based on three separate blots. Results are expressed as mean plus S.E.M., and statistical analysis between groups was determined by one-way ANOVA followed by Tukey's test. The difference from the “NC” group is indicated as “a” (p<0.01), while the difference from the “No Serum” group is indicated as “b” (p<0.01).

[6] = 8 weeks of dietary EGCg supplementation, aged SD rats
[7] = Dataset C, EGCg 200 mg/kg bw in diet, 8 weeks, Quantitative Assay I
[8] = Dataset E, EGCg 50 mg/kg bw in diet, 8 weeks, Quantitative Assay II
[9] = muscle, EGCg 50 mg/kg bw v. control diet, 22 mos, n.s.
[10] = serum, EGCg 200 mg/kg bw, 8 weeks, n.s.

Question: What does the source list for epigallocatechin-3-gallate [EGCg]?
Answer: level of VEGF in gastrocnemius muscle (in words) [1, 6]: significant increase; VEGF [1, 7]: 229 pg/mL; VEGF [1, 8]: 479 pg/mL; VEGF % change Dataset E/Dataset D [1, 9]: −5% (n.s.); VEGF, Serum, Dataset C (EGCg Supplemented - 22 mos.) v. Dataset B (25 mos.) [1, 10]: −15% (n.s.); level of IL1A in gastrocnemius muscle (in words) [2, 6]: significant decrease; IL1A [2, 7]: 14.3 pg/mL; IL1A [2, 8]: 28.0 pg/mL; IL1A % change Dataset E/Dataset D [2, 9]: −12% (n.s.); IL1A, Serum, Dataset C (EGCg Supplemented - 22 mos.) v. Dataset B (25 mos.) [2, 10]: −8% (n.s.); gastrocnemius muscle wet weight compared to Control rats (in words) ([3]; EGCg 200 mg/kg body weight): significant increase; Muscle wet weight % change from control ([3]; gastrocnemius, EGCg 200 mg/kg body weight in diet): +5.12%; Muscle Wet Weight (grams) ([3]; gastrocnemius, EGCg 200 mg/kg body weight in diet, n=12, p < 0.05 compared to Control): 3.00 ± 0.03 grams; intramuscular myostatin levels compared to old rats without EGCg (in words) ([4]; western blot): decrease; Myostatin (% cage control) ([4]; Old-EGCg rats (22 months old), single rats (ID 3, 6, 9), densitometry, Old rats 700-800): 80 % cage control and 140 % cage control and 120 % cage control; Myostatin (% control) ([5]; No Serum + 10 μM EGCg): 55 % control; Myostatin (% control) ([5]; No Serum + 25 μM EGCg): 43 % control; myostatin levels compared to the No Serum group (in words) ([5]; serum starved C2C12 myotubes, EGCg 10 μM and 25 μM): significantly lower; also recorded: decrease
